# Assay results published in patent publication US12516095B2, “Peptide hormone analogues” (IP2IPO INNOVATIONS LIMITED, priority 2019, dated 2026).
# Starred links: 1 amine or outer side, 2 acyl side, 3 side chain; linkers in the order of their positions; H or OH if unused. Non-standard residues stand in square brackets, D forms with d. Residues, ends and D or L forms follow the SMILES beside them. Groups on a side chain read outwards from the residue. *: point of attachment. C20 diacid = O=C(O)CCCCCCCCCCCCCCCCCCC(=O)*; C18 diacid = O=C(O)CCCCCCCCCCCCCCCCC(=O)*; γGlu = O=C(O)[C@H](CCC(=O)[*:2])N[*:1]; Aib = CC(C)(N)C(=O)O
# Assay: PK measurements for half life assessment in pigs
# Assay type: in vivo, pig
# Conditions: male large white pigs, single subcutaneous injection, plasma; time from tmax to half of Cmax; typically mean of four animals
# Experimental: Male large white pigs receive a single subcutaneous injection of the test compound at the start of study (0 hours). Repeated blood samples were taken from the pig over the proceeding 168 hours and plasma separated and stored at −20 to −80° C. Plasma concentration of the test compound was quantified using a radioimmunoassay or mass spectrum analysis. Time taken from tmax to half of Cmax was calculated and represents the half-life (t½) of the compound. Typically, the presented t½ is the mean of four separate animals.
row,Compound,Half life [h]
1,H-H[Aib]HGTFTSDYSKYLDAKRAQEFIEWLLQSHHQQHESPPPGK([γGlu-C20 diacid])-OH [Example 701],66

# Same assay, conditions: male, large white, pig, plasma, sc, single subcutaneous injection, time from tmax to half of Cmax, typically mean of four animals
row,Compound,half-life [h]
1,CC[C@H](C)[C@H](NC(=O)[C@H](Cc1ccccc1)NC(=O)[C@H](CCC(=O)O)NC(=O)[C@H](CCC(N)=O)NC(=O)[C@H](C)NC(=O)[C@H](CCCNC(=N)N)NC(=O)[C@H](CCCCN)NC(=O)[C@H](C)NC(=O)[C@H](CC(=O)O)NC(=O)[C@H](CC(C)C)NC(=O)[C@H](Cc1ccc(O)cc1)NC(=O)[C@H](CCCCN)NC(=O)[C@H](CO)NC(=O)[C@H](Cc1ccc(O)cc1)NC(=O)[C@H](CC(=O)O)NC(=O)[C@H](CO)NC(=O)[C@@H](NC(=O)[C@H](Cc1ccccc1)NC(=O)[C@@H](NC(=O)CNC(=O)[C@H](Cc1c[nH]cn1)NC(=O)C(C)(C)NC(=O)[C@@H](N)Cc1c[nH]cn1)[C@@H](C)O)[C@@H](C)O)C(=O)N[C@@H](CCC(=O)O)C(=O)N[C@@H](Cc1c[nH]c2ccccc12)C(=O)N[C@@H](CC(C)C)C(=O)N[C@@H](CC(C)C)C(=O)N[C@@H](CCC(N)=O)C(=O)N[C@@H](CO)C(=O)N[C@@H](Cc1c[nH]cn1)C(=O)N[C@@H](CCC(N)=O)C(=O)N[C@@H](CCC(N)=O)C(=O)N[C@@H](Cc1c[nH]cn1)C(=O)N1CCC[C@H]1C(=O)N[C@@H](CO)C(=O)N[C@@H](CO)C(=O)N[C@@H](CO)C(=O)N[C@@H](CO)C(=O)N[C@@H](C)C(=O)N[C@@H](CCCCNC(=O)[C@H](CC(N)=O)NC(=O)CC[C@H](NC(=O)CCCCCCCCCCCCCCCCCCC(=O)O)C(=O)O)C(=O)O [Example 707] (H-H[Aib]HGTFTSDYSKYLDAKRAQEFIEWLLQSHQQHPSSSSAK([Asn-γGlu-C20 diacid])-OH),103
2,CC[C@H](C)[C@H](NC(=O)[C@H](Cc1ccccc1)NC(=O)[C@H](CCC(=O)O)NC(=O)[C@H](CCC(N)=O)NC(=O)[C@H](C)NC(=O)[C@H](CCCNC(=N)N)NC(=O)[C@H](CCCCN)NC(=O)[C@H](C)NC(=O)[C@H](CC(=O)O)NC(=O)[C@H](CC(C)C)NC(=O)[C@H](Cc1ccc(O)cc1)NC(=O)[C@H](CCCCN)NC(=O)[C@H](CO)NC(=O)[C@H](Cc1ccc(O)cc1)NC(=O)[C@H](CC(=O)O)NC(=O)[C@H](CO)NC(=O)[C@@H](NC(=O)[C@H](Cc1ccccc1)NC(=O)[C@@H](NC(=O)CNC(=O)[C@H](Cc1c[nH]cn1)NC(=O)C(C)(C)NC(=O)[C@@H](N)Cc1c[nH]cn1)[C@@H](C)O)[C@@H](C)O)C(=O)N[C@@H](CCC(=O)O)C(=O)N[C@@H](Cc1c[nH]c2ccccc12)C(=O)N[C@@H](CC(C)C)C(=O)N[C@@H](CC(C)C)C(=O)N[C@@H](CCC(N)=O)C(=O)N[C@@H](CO)C(=O)N[C@@H](Cc1c[nH]cn1)C(=O)N[C@@H](CCC(N)=O)C(=O)N[C@@H](CCC(N)=O)C(=O)N[C@@H](Cc1c[nH]cn1)C(=O)N1CCC[C@H]1C(=O)N[C@@H](CO)C(=O)N[C@@H](CO)C(=O)N[C@@H](CO)C(=O)N[C@@H](C)C(=O)N[C@@H](CCCCNC(=O)[C@H](CC(N)=O)NC(=O)CC[C@H](NC(=O)CCCCCCCCCCCCCCCCCCC(=O)O)C(=O)O)C(=O)O [Example 708] (H-H[Aib]HGTFTSDYSKYLDAKRAQEFIEWLLQSHQQHPSSSAK([Asn-γGlu-C20 diacid])-OH),105
3,H-H[Aib]HGTFTSDYSKYLDAKRAQEFIEWLLQSHHQQHESPPPGK([Asn-γGlu-C20 diacid])-OH [Example 647],106
4,H-H[Aib]HGTFTSDYSKYLDAKRAQEFIEWLLQSHHQQHESPPPGK([γGlu-C20 diacid])-OH [Example 646],42
5,H-H[Aib]HGTFTSDYSKYLDAKRAQEFIEWLLQSHQHQHESPPPGK([His-Asn-γGlu-C18 diacid])-OH [Example 640],135
6,H-H[Aib]HGTFTSDYSKYLDAKRAQEFIEWLLQSHQQHHESPPPGK([γGlu-C20 diacid])-OH [Example 642],109
